One test relates to pMstGV-APP construct. The test can be described thus: APP-Gal4/VP16 (pMstGV-APP) luciferase reporter gene assay in transfected 293 cells. The format is cell-based, human. As to conditions: 100 nM TPA for 24 h. Here is the method:
(§1) Cell Culture and transfection of 293 cells: The human embryonic kidney cell line HEK 293 (CRL-1573, ATCC) was maintained in monolayer culture at 37° C. under a 8% CO2 atmosphere. On day 0 cells were set up at a density of 5×105 per 60 mm dish in Dulbecco's Modified Eagle's Medium (low glucose) containing 100 U/ml penicillin, 100 ug/ml streptomycin sulfate and 10% (v/v) FCS. On day one cells were transfected by calcium phosphate precipitation (MBS Kit™, Stratagene, La Jolla, Calif., used according to manufacturers' instructions) with 9 ug of the pG5 E1B-Luc plasmid, 0.5 ug of pCMV-b-Gal for internal control of transfection efficiency, the respective receptor construct and expression vectors for different adapter proteins or other components as indicated in the text. On day two treatment with TPA or other reagents was started as described above and cells were harvested 24 h to 48 h later.
(§2) Reporter gene assays: 293 cells were harvested for reporter gene assays 48 h after transfection. Their culture medium was removed and the cells were washed once with PBS. After addition of 400 ul “Reporter Lysis Buffer” (Promega, Madison, Wis.) per 60mm dish cells were processed according to manufacturers' instructions. Luciferase gene expression was analyzed using the “Luciferase Assay System” (Promega, Madison, Wis.). […]
(In a reporter assay the amount or activity of a reporter protein is the signal.)

The test system of test [1] is LRP. The test can be described thus: Endogenous LRP levels by Western blotting in MEF-1 cells. The format is cell-based, mouse. Here is the method: (§3) SDS-Page and immunoblot analysis: SDS-Page and immunoblotting were performed according to standard procedures. Briefly, equal amounts of protein as determined with the Coomassie Plus Protein Reagent (Pierce, Rockford, Ill.) were loaded on 4–12% SDS PA gels. After electrophoresis and protein transfer on a PVDF membrane immunoblot, analysis was carried out with rabbit polyclonal antibodies against a C-terminal fragment of LRP. Bound antibodies were visualized with peroxidase-conjugated anti-rabbit IgG by using the SuperSignal CL-HRP Substrate (Pierce, Rockford, Ill.) according to the manufacturer's instructions.
(§4) Then cell lysates were prepared and analyzed by Western Blotting. The antibody used for immunostaining is directed against LRP's C-terminus.
Decrease of LRP Levels after TPA Treatment is Time-Dependent. […] Then cell lysates were prepared and used for SDS-PAGE and Western Blotting. LRP was stained with an antibody directed against its cytoplasmic tail.

The next test has as its system LRP-Gal4/VP16. Description: LRP-Gal4/VP16 luciferase reporter gene assay in transfected 293 cells. The format is cell-based, human. Here is the method: as §1
Reporter gene assays: 293 cells were harvested for reporter gene assays 48 h after transfection. Their culture medium was removed and the cells were washed once with PBS. After addition of 400 ul “Reporter Lysis Buffer” (Promega, Madison, Wis.) per 60mm dish cells were processed according to manufacturers' instructions. Luciferase gene expression was analyzed using the “Luciferase Assay System” (Promega, Madison, Wis.). A 10 s integral measurement of light emission from each reaction mixture was performed in a tube luminometer (Octopump II, MOM Instruments).
β-Gal assays for internal control of […] were carried out with an aliquot of the cell lysates prepared for the luciferase assay using the ‘Chemiluminescent b-Gal Detection Kit” (Clontech, Palo Alto, Calif.). Normalization of luciferase activity to b-Gal activity was done by dividing RLU values obtained with the first assay by those from the latter reaction. All transfections for reporter gene assays were repeated in at least two independent experiments.
Experimental Strategy. The Gal4/VP16 fusion protein, which consists of the DNA binding domain of the yeast Gal4 transcription factor and of the transactivating domain of the Herpes simplex virus protein VP16, is able to drive transcription from a luciferase reporter plasmid that contains five Gal4 binding elements in front of the adenoviral E1B minimal promoter and the firefly luciferase gene. […]
Treatment of 293 Cells with the Proteasome Inhibitor Lactacystin Stabilizes the Intracellular LRP-Cleavage Product. […] Subsequently cell lysates were prepared and examined for luciferase activity. β-Gal activity was measured to correct for transfection efficiency. […]

Another test deals with pMstGV-LDL-R construct. The test can be described thus: LDL-R-Gal4/VP16 (pMstGV-LDL-R) luciferase reporter gene assay in transfected 293 cells. The format is cell-based, human. As to conditions: 100 nM TPA for 24 h. As for the experimental part: as §1, §2
For test [2], the system named is LRP. Description: Endogenous LRP levels by Western blotting in untransfected 293 cells. The format is cell-based, human. As for the experimental part:
as §3, §4
TPA Treatment Leads To Decreased LRP Levels in 293 Cells. […] Then cell lysates were prepared and analyzed by Western Blotting. The antibody used for immunostaining is directed against LRP's C-terminus.
In general terms: In western blotting, separated proteins are transferred to a membrane and probed.

Structures are written as SMILES.

Turning to `CCCCCCCCCCCCCC(=O)O[C@@H]1[C@@H](C)[C@@]2(O)[C@@H](C=C(CO)C[C@]3(O)C(=O)C(C)=C[C@@H]23)[C@@H]2C(C)(C)[C@]12OC(C)=O` [TPA, Phorbol 12-myristate 13-acetate], the “luciferase activity, stimulated versus unstimulated” value is “equivalent elevated activity under both stimulated and unstimulated conditions” in the test with pMstGV-APP construct; “negligible activity under stimulated and unstimulated conditions” in the test with pMstGV-LDL-R construct. For the same molecule, the “effect on endogenous LRP levels” value is given as “Lowers Endogenous LRP Levels” in the test on LRP [1] (100 nM TPA for 24 h or time indicated) and “Lowers Endogenous LRP Levels” in the test with LRP [2] (100 nM TPA for 24 h or time indicated, untransfected 293 cells). Also, the “decrease of LRP levels, time course” value with LRP [1] (TPA for 0.5, 1.5, 5, 5, 6 and 24 h) is “Time-Dependent”. Besides, in the test on LRP-Gal4/VP16 (100 nM TPA for 24 h, pcDNA3.1-LRP-Gal4/VP16), the “luciferase activity, elevation under stimulated versus unstimulated conditions” value was “up to 10 fold”. Moreover, the “corrected luciferase activity (intracellular/intramembraneous LRP cleavage) versus unstimulated cells” value with LRP-Gal4/VP16 (100 nM TPA, time periods of 12, 16, 20 and 24, pcDNA3.1-LRP-Gal4/VP16) is on record as “linear increase”. Besides, the “decrease of cellular LRP levels” value with LRP [2] (100 nM TPA, various time periods up to 48 h, Western blot, antibody against LRP C-terminus, text names 293 and MEF-1 cells, heading 293) is listed as at most 90%.
Consider `CC(=O)N[C@@H](CSC(=O)[C@]1([C@@H](O)C(C)C)NC(=O)[C@H](C)[C@@H]1O)C(=O)O` [lactacystin, Lactacystin], for which the “luciferase signal enhancement (stabilization of intracellular LRP-cleavage product)” value in the test on LRP-Gal4/VP16 (10 uM lactacystin for 24 h) and in the test on LRP-Gal4/VP16 (50 uM lactacystin for 24 h) was “about 25 fold” throughout.

These data come from patent US7192714B2, “LDL receptor signaling assays” (Board of Regents, The University of Texas System, priority 2001, dated 2007).
